This note sets out measurements from patent US20100292255A1, “Therapeutic Compounds and Their Use in Treating Diseases and Disorders” (Myriad Pharmaceuticals, Inc., priority 2007, published 2010).

For the experiment, the target named is T1, purified human Hsp90.
T1 construct: purified human Hsp90 (Stressgen, SPP-770)
The experiment in a line: Hsp90 binding assay: displacement of BODIPY-labeled geldanamycin measured by fluorescence polarization. The conditions noted are these: BODIPY-GM 10 nM, Hsp90 30 nM, overnight at room temperature; read-out: GM displacement from purified Hsp90 measured by FP IC 50. The procedure: Binding of the Example Compounds to purified Hsp90 was assayed by measuring the displacement of BODIPY-labeled geldanamycin (BODIPY-GM) from purified human Hsp90, using a fluorescence polarization assay adapted from Kim et al. (J. Biomolec. Screening, 9(5):375-381 (2004)). Compound dilutions (in 100% DMSO) were added to black-bottom 96-well plates (Greiner Bio-One, Monroe, N.C.) in 2% DMSO final, and equal volumes of BODIPY-GM (10 nM final) and purified human Hsp90 (Stressgen, SPP-770; 30 nM final) (Assay Designs, Ann Arbor, Mich.) in assay buffer (20 mM HEPES-KOH pH 7.3, 50 mM KCl, 5 mM MgCl2, 20 mM Na2MoO4, 0.01% NP-40, 0.1 mg/mL bovine gamma globulin [P2045; Invitrogen, Carlsbad, Calif.], 2 mM DTT) were added sequentially to yield a final volume of 50 microliters. Plates were incubated overnight at room temperature. Parallel and perpendicular fluorescence measurements were read (Analyst AD plate reader; LJL BioSystems, Middletown, Conn.) with excitation/emission wavelengths of 485/530 nm. Background fluorescence (buffer only) was subtracted, and fluorescence polarization (FP) values, expressed in mP units, were calculated from parallel and perpendicular fluorescence readings as follows:
FP=(parallel−perpendicular)/(parallel+perpendicular)*1000.
Percent inhibition was calculated by normalizing the FP values to those obtained in parallel reactions containing DMSO and subtracting these normalized values from 100%. Intrinsic compound fluorescence was independently monitored, and FP data points confounded by compound fluorescence were excluded from the analysis.
(Polarisation of emitted light reports the rotation of a fluorescent probe.)
For the molecule `CC(C)(C)OC(=O)N1CCC(CCn2c(Sc3cc4c(cc3Br)CCO4)nc3c(N)ncnc32)CC1` [Example Compound 172, tert-Butyl 4-(2-{6-amino-8-[(5-bromo-2,3-dihydro-1-benzofuran-6-yl)thio]-9H-purin-9-yl}ethyl)piperidine-1-carboxylate], the IC50 turned out to be 300 nM.

With `C[C@H](O)C(=O)N1CCC(CCn2c(Sc3cc4c(cc3Br)CCO4)nc3c(N)ncnc32)CC1` [Example Compound 173, (2S)-1-[4-(2-{6-Amino-8-[(5-bromo-2,3-dihydro-1-benzofuran-6-yl)thio]-9H-purin-9-yl}ethyl)piperidin-1-yl]-1-oxopropan-2-ol], the IC50 was found to be 35 nM.

Take `COC(=O)c1cc2c(cc1Sc1nc3c(N)ncnc3n1CCC1CCNCC1)OCO2` [Example Compound 174, Methyl 6-{[6-amino-9-(2-piperidin-4-ylethyl)-9H-purin-8-yl]thio}-1,3-benzodioxole-5-carboxylate]: the IC50 came to 150 nM.

In the case of `CCOC(=O)c1cc2c(cc1Sc1nc3c(N)ncnc3n1CCC1CCNCC1)OCO2` [Example Compound 175, ethyl 6-{[6-amino-9-(2-piperidin-4-ylethyl)-9H-purin-8-yl]thio}-1,3-benzodioxole-5-carboxylate], the IC50 was found to be 70 nM.

Regarding `Nc1ncnc2c1nc(Sc1cc3ccoc3cc1Br)n2CCC1CCN(C=O)CC1` [Example Compound 176, 4-(2-{6-Amino-8-[(6-bromo-1-benzofuran-5-yl)thio]-9H-purin-9-yl}ethyl)piperidine-1-carbaldehyde], the IC50 amounted to 900 nM.

Turning to `Nc1ncnc2c1nc(Sc1cc3occc3cc1Cl)n2CCC1CCN(C=O)CC1` [Example Compound 178, 4-(2-{6-Amino-8-[(5-chloro-1-benzofuran-6-yl)thio]-9H-purin-9-yl}ethyl)piperidine-1-carbaldehyde], the IC50 stood at 305 nM.

`Nc1ncnc2c1nc(Sc1cc(Br)c3c(c1)CCO3)n2CCC1CCN(C=O)CC1` [Example Compound 179, 4-(2-{6-Amino-8-[(7-bromo-2,3-dihydro-1-benzofuran-5-yl)thio]-9H-purin-9-yl}ethyl)piperidine-1-carbaldehyde]: the IC50 was 4000 nM.

Consider `Nc1ncnc2c1nc(Sc1cc3c(cc1Br)OCC3)n2CCC1CCN(C=O)CC1` [Example Compound 180, 4-(2-{6-Amino-8-[(6-bromo-2,3-dihydro-1-benzofuran-5-yl)thio]-9H-purin-9-yl}ethyl)piperidine-1-carbaldehyde], for which the IC50 worked out at 400 nM.

Take `CC1(C)CCc2cc(Br)c(Sc3nc4c(N)ncnc4n3CCC3CCN(C=O)CC3)cc21` [Example Compound 181, 4-(2-{6-Amino-8-[(6-bromo-3,3-dimethyl-2,3-dihydro-1H-inden-5-yl)thio]-9H-purin-9-yl}ethyl)piperidine-1-carbaldehyde]: the IC50 turned out to be 1500 nM.

For the molecule `Nc1ncnc2c1nc(Sc1cc(Br)c3occc3c1)n2CCC1CCN(C=O)CC1` [Example Compound 182, 4-(2-{6-Amino-8-[(7-bromo-1-benzofuran-5-yl)thio]-9H-purin-9-yl}ethyl)piperidine-1-carbaldehyde], the IC50 is above 5000 nM.

Consider `Nc1ncnc2c1nc(Sc1cc3c(cc1F)OCCO3)n2CCC1CCN(C=O)CC1` [Example Compound 183, 4-(2-{6-Amino-8-[(7-fluoro-2,3-dihydro-1,4-benzodioxin-6-yl)thio]-9H-purin-9-yl}ethyl)piperidine-1-carbaldehyde], for which the IC50 was 2900 nM.

`CN1CCOc2cc(Br)c(Sc3nc4c(N)ncnc4n3CCC3CCN(C=O)CC3)cc21` [Example Compound 184, 4-(2-{6-Amino-8-[(7-bromo-4-methyl-3,4-dihydro-2H-1,4-benzoxazin-6-yl)thio]-9H-purin-9-yl}ethyl)piperidine-1-carbaldehyde]: the IC50 is 310 nM.

Consider `CN1CCOc2cc(Sc3nc4c(N)ncnc4n3CCC3CCN(C=O)CC3)c(Cl)cc21` [Example Compound 185, 4-(2-{6-Amino-8-[(6-chloro-4-methyl-3,4-dihydro-2H-1,4-benzoxazin-7-yl)thio]-9H-purin-9-yl}ethyl)piperidine-1-carbaldehyde], for which the IC50 was 400 nM.

For `CN1CCOc2cc(Sc3nc4c(N)ncnc4n3CCC3CCN(C=O)CC3)c(Br)cc21` [Example Compound 186, 4-(2-{6-Amino-8-[(6-bromo-4-methyl-3,4-dihydro-2H-1,4-benzoxazin-7-yl)thio]-9H-purin-9-yl}ethyl)piperidine-1-carbaldehyde], the IC50 turned out to be 65 nM.

Consider `CN1CCOc2cc(Sc3nc4c(N)ncnc4n3CCC3CCN(C=O)CC3)ccc21` [Example Compound 187, 4-(2-{6-Amino-8-[(4-methyl-3,4-dihydro-2H-1,4-benzoxazin-7-yl)thio]-9H-purin-9-yl}ethyl)piperidine-1-carbaldehyde], for which the IC50 was 5000 nM.

In the case of `Nc1ncnc2c1nc(Sc1cc3c(cc1Cl)OCO3)n2CCC1CCN(C=O)CC1` [Example Compound 188, 4-(2-{6-Amino-8-[(6-chloro-1,3-benzodioxol-5-yl)thio]-9H-purin-9-yl}ethyl)piperidine-1-carbaldehyde], the IC50 was determined as 205 nM.

For the molecule `Nc1ncnc2c1nc(Sc1cc3occc3cc1Br)n2CCC1CCC(F)(F)CC1` [Example Compound 189, 8-[(5-Bromo-1-benzofuran-6-yl)thio]-9-[2-(4,4-difluorocyclohexyl)ethyl]-9H-purin-6-amine], the IC50 is above 5000 nM.

As to `Nc1ncnc2c1nc(Sc1cc3c(cc1Br)OCO3)n2CCC1CCC(F)(F)CC1` [Example Compound 190, 8-[(6-Bromo-1,3-benzodioxol-5-yl)thio]-9-[2-(4,4-difluorocyclohexyl)ethyl]-9H-purin-6-amine], the IC50 is 650 nM.

As for `CC(C)(C)OC(=O)N1CCC(CCn2c(Sc3cc4occc4cc3Br)nc3c(N)ncnc32)CC1` [Example Compound 191, tert-Butyl 4-(2-{6-amino-8-[(5-bromo-1-benzofuran-6-yl)thio]-9H-purin-9-yl}ethyl)piperidine-1-carboxylate], the IC50 stood at 2500 nM.

`CC(C)(C)OC(=O)N1CCC(CCn2c(Sc3cc4c(cc3C(F)(F)F)OCC4)nc3c(N)ncnc32)CC1` [Example Compound 192, tert-Butyl 4-[2-(6-amino-8-{[6-(trifluoromethyl)-2,3-dihydro-1-benzofuran-5-yl]thio}-9H-purin-9-yl)ethyl]piperidine-1-carboxylate]: the IC50 was above 5000 nM.

Take `CN(C)C(=O)c1cc2c(cc1Sc1nc3c(N)ncnc3n1CCC1CCN(C=O)CC1)OCO2` [Example Compound 193, 6-({6-amino-9-[2-(1-formylpiperidin-4-yl)ethyl]-9H-purin-8-yl}thio)-N,N-dimethyl-1,3-benzodioxole-5-carboxamide]: the IC50 is 4300 nM.

Consider `CC(=O)OCC(=O)N1CCC(CCn2c(Sc3cc4occc4cc3Br)nc3c(N)ncnc32)CC1` [Example Compound 194, 2-[4-(2-{6-Amino-8-[(5-bromo-1-benzofuran-6-yl)thio]-9H-purin-9-yl}ethyl)piperidin-1-yl]-2-oxoethyl acetate], for which the IC50 came out at 150 nM.

On to `Nc1ncnc2c1nc(Sc1cc3occc3cc1Br)n2CCC1CCN(C(=O)CO)CC1` [Example Compound 195, 2-[4-(2-{6-Amino-8-[(5-bromo-1-benzofuran-6-yl)thio]-9H-purin-9-yl}ethyl)piperidin-1-yl]-2-oxoethanol], for which the IC50 turned out to be 45 nM.

As to `Nc1ncnc2c1nc(Sc1cc3occc3cc1Br)n2CCC1CCNCC1` [Example Compound 197, 8-[(5-Bromo-1-benzofuran-6-yl)thio]-9-(2-piperidin-4-ylethyl)-9H-purin-6-amine], the IC50 was found to be 150 nM.

Consider `CC(=O)O[C@@H](C)C(=O)N1CCC(CCn2c(Sc3cc4occc4cc3Br)nc3c(N)ncnc32)CC1` [Example Compound 198, (1S)-2-[4-(2-{6-Amino-8-[(5-bromo-1-benzofuran-6-yl)thio]-9H-purin-9-yl}ethyl)piperidin-1-yl]-1-methyl-2-oxoethyl acetate], for which the IC50 worked out at 110 nM.

With `C[C@H](O)C(=O)N1CCC(CCn2c(Sc3cc4occc4cc3Br)nc3c(N)ncnc32)CC1` [Example Compound 199, (2S)-1-[4-(2-{6-Amino-8-[(5-bromo-1-benzofuran-6-yl)thio]-9H-purin-9-yl}ethyl)piperidin-1-yl]-1-oxopropan-2-ol], the IC50 stood at 190 nM.

With `C[C@@H](OC(=O)C(C)(C)C)C(=O)N1CCC(CCn2c(Sc3cc4occc4cc3Br)nc3c(N)ncnc32)CC1` [Example Compound 200, (1R)-2-[4-(2-{6-Amino-8-[(5-bromo-1-benzofuran-6-yl)thio]-9H-purin-9-yl}ethyl)piperidin-1-yl]-1-methyl-2-oxoethyl pivalate], the IC50 is 185 nM.

With `C[C@@H](O)C(=O)N1CCC(CCn2c(Sc3cc4occc4cc3Br)nc3c(N)ncnc32)CC1` [Example Compound 201, (2R)-1-[4-(2-{6-Amino-8-[(5-bromo-1-benzofuran-6-yl)thio]-9H-purin-9-yl}ethyl)piperidin-1-yl]-1-oxopropan-2-ol], the IC50 stood at 200 nM.
